This experiment addresses T1, tubulin (alpha/beta heterodimer).
T1 construct: purified goat brain tubulin; with alpha-tubulin/beta-tubulin heterodimer
Nature of the experiment: intrinsic tryptophan fluorescence quenching; also competition with colchicine and inhibition of tubulin polymerization. The class given is binding, Capra hircus.

This passage reports Kd results from paper PMC6496756, “Zerumbone, a cyclic sesquiterpene, exerts antimitotic activity in HeLa cells through tubulin binding and exhibits synergistic activity with vinblastine and paclitaxel” (Cell Proliferation, 2018).

pKd: −log10 of the molar value.

What is called pKd is the negative decadic logarithm of the Kd, by convention in mol/L. High values mean a low Kd, low ones a high Kd. Regarding `C/C1=C\CC(C)(C)/C=C/C(=O)/C(C)=C/CC1` [zerumbone, (2E,6E,10E)‐2,6,9,9‐tetramethylcycloundeca‐2,6,10‐trien‐1‐one], the pKd was 5.40.
